# Measurements: patent EP1353624B1, “PHARMACEUTICAL COMPOSITIONS OF A NON-ENTERIC COATED PROTON PUMP INHIBITOR WITH A CARBONATE SALT AND BICARBONATE SALT COMBINATION” (TAP Pharmaceutical Products, Inc., priority 2000, dated 2002)
# Several values for one entry are separate records, joined by “and”; a condition that tells them apart may be missing. Equal entries are not always repeated. Where two headings read alike, the source gives them in different places.
# Assays:
# [1] = Storage stability of granules (potency and related substances); type: physicochemical; details: granules of Examples 4 and 5; 22°C for 21 days in closed containers
# Experimental: Additionally, the granules prepared in Examples 4 and 5 were kept at 22°C for 21 days in closed containers.
# [2] = Stability of lansoprazole in simulated gastric fluid (chromatographic assay); type: physicochemical; details: for % labeled amount of lansoprazole remaining: room temperature; for drug degraded: at 60 minutes in SGF
# Experimental: Lansoprazole degrades in acid and is stable in base. This study was performed to determine 1) how quickly lansoprazole degrades in simulated gastric fluid (SGF); and 2) whether a high pH-buffering agent (carbicarb which is an equimolar mixture of sodium carbonate and sodium bicarbonate) could be used to retard the degradation of lansoprazole in SGF. All the experiments were conducted at room temperature (22°C ± 2°C).
# The PPI test sample included lansoprazole (30 mg); mannitol (60 mg), meglumine (30 mg) and sodium hydroxide (3 mg).
# Then 5.0 mL 2 N sodium hydroxide solution was added to the 0-minutes beaker with mixing. To each of the 5 remaining beakers, 10.0 mL of 8.4% carbicarb solution was added and stirred to mix. At the appropriate time interval (corresponding to the individual beaker numbers), 5.0 mL 2 N sodium hydroxide solution was added to stop the reaction. A portion of the resulting solution was diluted with pH 10 diluent. 10 µL of the resulting solution was then injected into the chromatographic system for assay.
# Granular formulations of lansoprazole, including carbicarb were also made and tested. The stability of the granular formulations was tested according to the procedure of Example 3. The granular formulations of lansoprazole for this example were prepared as follows.
# The coherent mass containing lansoprazole, carbicarb, lactose and sucrose solution was prepared as described above, in Example 3. This coherent mass was passed through a 20-mesh screen and the resulting granules were dried at 50°C for 12 hours. Granules containing 30-mg lansoprazole were transferred to an amber color container along with and an equal weight of flavor granules. 10 ml of water ((HPLC grade, Fisher Scientific, Pittsburgh, PA) was added to the container with gentle shaking to reconstitute the suspension. The resulting suspension of Lansoprazole was tested for stability in simulated gastric fluid as described earlier in Experiment 3.
# [3] = Text: To quantify the gas produced by the neutralization of simulated gastric fluid (SGF) by carbicarb and by sodium bicarbonate in vitro, a standard CO2 assay technique was utilized (see USP 24 -NF 19 Beta, The United States Pharmacopeia 2000, p. 306)
# (§1) Aqueous solutions to be tested were made up from starting materials sodium carbonate, (anhydrous, available from Mallinckrodt) and sodium bicarbonate (available from Mallinckrodt). An 8.4% sodium bicarbonate solution and an 8.4% carbicarb solution (containing equimolar amounts of sodium bicarbonate and sodium carbonate) were tested as follows.
# The specimen gas was generated by reacting either 450 mL simulated gastric fluid (SGF) with 50 mL of the carbicarb solution; or by reacting 45 ml of simulated gastric fluid with 5 ml of sodium bicarbonate solution in a 500 mL Erlenmeyer flask.
# To make Simulated Gastric Fluid (SGF) 1 g sodium chloride was transferred to a 500-mL volumetric flask. After adding 1.6 g pepsin, 25 mL 2 N hydrochloric acid was added and swirled to mix. The resultant solution could then be diluted to the appropriate volume with water.
# The amount of gas generated in a twenty-minute time period was measured in an Orsat Glass Vapor Absorption Apparatus, by the standard assay technique. Two tests were run for each solution. The volume of CO2 generated was calculated from the difference in the initial volume of gas produced (ml) and the final volume of gas remaining (ml).
# [4] = 50 mL SGF
# Experimental: To determine and compare the gastric acid neutralizing capacity of sodium bicarbonate solution to carbicarb solution, the following experiment was performed.
# as §1
# 50 mL simulated gastric fluid (SGF, prepared according to the procedure described in Example 1) was pipetted into an Erlenmeyer flask. Four drops of methyl red, then four drops of phenolphthalein were then added to the flask. The pH of solution was monitored with a pH electrode. The solution to be tested was added to a 5-mL buret. The gastric media in the flask was then titrated with the test solution to an endpoint within 0.2 pH units of pH 6.5 (as indicated by the color change and pH reading). Then, titration was resumed, to an endpoint within 0.2 pH units of pH 8.0 (as indicated by the color change and pH reading).
# [5] = 45 mL SGF and 5 mL test solution, gas generated in twenty minutes
# [6] = 450 mL SGF and 50 mL test solution, ten-fold scale-up of the 45 mL/5 mL run
smiles,measurement,setting,value
Cc1c(OCC(F)(F)F)ccnc1C[S+]([O-])c1nc2ccccc2[nH]1 (stereo not shown) [lansoprazole],stability on storage (potency and related substances),[1],stable
same,% labeled amount of lansoprazole remaining,"[2]; Sample in carbicarb solution, time in SGF 0 minutes",98.0%
same,% labeled amount of lansoprazole remaining,"[2]; Sample in carbicarb solution, time in SGF 5 minutes",96.7%
same,% labeled amount of lansoprazole remaining,"[2]; Sample in carbicarb solution, time in SGF 15 minutes",97.4%
same,% labeled amount of lansoprazole remaining,"[2]; Sample in carbicarb solution, time in SGF 30 minutes",95.8%
same,% labeled amount of lansoprazole remaining,"[2]; Sample in carbicarb solution, time in SGF 45 minutes",94.4%
same,% labeled amount of lansoprazole remaining,"[2]; Sample in carbicarb solution, time in SGF 60 minutes",96.5%
same,% labeled amount of lansoprazole remaining,"[2]; Sample in water, time in SGF 0 minutes",99.5%
same,% labeled amount of lansoprazole remaining,"[2]; Sample in water, time in SGF 5 minutes",39.9%
same,% labeled amount of lansoprazole remaining,"[2]; Sample in water, time in SGF 15 minutes",10.1%
same,% labeled amount of lansoprazole remaining,"[2]; Sample in water, time in SGF 30 minutes",4.1%
same,% labeled amount of lansoprazole remaining,"[2]; Sample in water, time in SGF 45 minutes",2.7%
same,% labeled amount of lansoprazole remaining,"[2]; Sample in water, time in SGF 60 minutes",2.0%
same,time stable in simulated gastric fluid,[2]; administered with carbicarb into SGF,at least 60 minutes
same,degradation,"[2]; administered with carbicarb into SGF, 60 minutes",< 5%
same,drug degraded,[2]; drug constituted with carbicarb solution,3.5%
same,drug degraded,[2]; drug reconstituted with water,98%
same,time stable in simulated gastric fluid,[2]; formulated with carbicarb as granules (Example 4),at least 60 minutes
same,time stable in simulated gastric fluid,[2]; suspension reconstituted from lansoprazole/carbicarb granules (Example 5),at least 60 minutes
"O=C([O-])O.[Na+] [8.4% sodium bicarbonate solution, sodium bicarbonate]",Volume of CO2,"[3]; 45 mL SGF and 5 mL test solution, difference of initial and residual gas volume",2.9 mL and 5.3 mL
same,Initial Gas Volume,[3]; [5],93.0 mL and 82.0 mL
same,Residual Gas Volume,[3]; [5],90.1 mL and 76.7 mL
same,Initial Gas Volume,[3]; [6],930.0 mL and 820.0 mL
same,Residual Gas Volume,[3]; [6],901.0 mL and 767.0 mL
same,Volume of CO2,[3]; [6],29.0 mL and 53.0 mL
same,Volume of Acid Neutralizer Solution Required,[4]; pH of simulated gastric fluid after adding neutralizer 1.2,0 mL
same,Volume of Acid Neutralizer Solution Required,[4]; pH of simulated gastric fluid after adding neutralizer 2.0,3.47 mL
same,Volume of Acid Neutralizer Solution Required,[4]; pH of simulated gastric fluid after adding neutralizer 3.0,4.09 mL
same,Volume of Acid Neutralizer Solution Required,[4]; pH of simulated gastric fluid after adding neutralizer 4.0,4.19 mL
same,Volume of Acid Neutralizer Solution Required,[4]; pH of simulated gastric fluid after adding neutralizer 5.0,4.27 mL
same,Volume of Acid Neutralizer Solution Required,[4]; pH of simulated gastric fluid after adding neutralizer 6.0,4.48 mL
same,Volume of Acid Neutralizer Solution Required,[4]; pH of simulated gastric fluid after adding neutralizer 7.0,5.00 mL
same,Volume of Acid Neutralizer Solution Required,[4]; pH of simulated gastric fluid after adding neutralizer 8.0,6.20 mL
same,volume added into the gastric media to reach the endpoint,"[4]; titration endpoint (pH not given; method: pH 6.5, then pH 8.0)",4.71 mL
